Laboratory results reported in the OligoGym collection.
“And” between values parts separate entries of the source, which are not always exact repeats. Identical values can stand only once. HELM strings list units from the 5' end as sugar, base in round brackets, then linkage (d deoxyribose, r ribose, m 2'-O-methyl, p phosphodiester). Methylation of C is not given here. [moe] = 2'-O-(2-methoxyethyl) (MOE); [cEt] = constrained ethyl (cEt); [sp] = phosphorothioate linkage

Biological target: HBV
Conditions: ASO

Substance	target mRNA inhibition (HepG2, 0.07 µM)	further results
RNA1{[moe](A)[sp].[moe](G)[sp].[moe](A)[sp].[moe](G)[sp].[moe](G)[sp].d(T)[sp].d(G)[sp].d(A)[sp].d(A)[sp].d(G)[sp].d(C)[sp].d(G)[sp].d(A)[sp].d(A)[sp].[moe](G)[sp].[moe](T)}$$$$V2.0	55% and 52%	–
RNA1{[moe](A)[sp].[moe](G)[sp].[moe](A)[sp].[moe](T)[sp].[moe](G)[sp].d(A)[sp].d(G)[sp].d(G)[sp].d(C)[sp].d(A)[sp].d(T)[sp].d(A)[sp].d(G)[sp].d(C)[sp].[moe](A)[sp].[moe](G)[sp].[moe](C)}$$$$V2.0	41% and 34%	–
RNA1{[moe](A)[sp].[moe](G)[sp].[moe](A)[sp].d(G)[sp].d(G)[sp].d(T)[sp].d(G)[sp].d(A)[sp].d(A)[sp].d(G)[sp].d(C)[sp].d(G)[sp].[moe](A)[sp].[moe](A)[sp].[moe](G)[sp].[moe](T)}$$$$V2.0	51% and 44%	–
RNA1{[moe](A)[sp].[moe](G)[sp].[moe](C)[sp].d(G)[sp].d(A)[sp].d(A)[sp].d(G)[sp].d(T)[sp].d(G)[sp].d(C)[sp].d(A)[sp].d(C)[sp].[moe](A)[sp].[moe](C)[sp].[moe](G)[sp].[moe](G)}$$$$V2.0	79% and 70%	target mRNA inhibition (HepG2, 0.0092593 µM): 11%; target mRNA inhibition (HepG2, 0.0277778 µM): 34%; target mRNA inhibition (HepG2, 0.0833333 µM): 66%; target mRNA inhibition (HepG2, 0.25 µM): 87%
RNA1{[moe](A)[sp].[moe](G)[sp].[moe](G)[sp].[moe](A)[sp].[moe](G)[sp].d(T)[sp].d(T)[sp].d(C)[sp].d(C)[sp].d(G)[sp].d(C)[sp].d(A)[sp].d(G)[sp].d(T)[sp].[moe](A)[sp].[moe](T)}$$$$V2.0	62% and 48%	–
RNA1{[moe](A)[sp].[moe](G)[sp].[moe](G)[sp].[moe](C)[sp].[moe](A)[sp].d(T)[sp].d(A)[sp].d(G)[sp].d(C)[sp].d(A)[sp].d(G)[sp].d(C)[sp].d(A)[sp].d(G)[sp].[moe](G)[sp].[moe](A)[sp].[moe](T)}$$$$V2.0	61% and 56%	–
RNA1{[moe](A)[sp].[moe](G)[sp].[moe](G)[sp].[moe](C)[sp].[moe](A)[sp].d(T)[sp].d(A)[sp].d(G)[sp].d(C)[sp].d(A)[sp].d(G)[sp].d(C)[sp].d(A)[sp].d(G)[sp].[moe](G)[sp].[moe](A)}$$$$V2.0	66% and 56%	target mRNA inhibition (HepG2, 0.0092593 µM): 9%; target mRNA inhibition (HepG2, 0.0277778 µM): 13%; target mRNA inhibition (HepG2, 0.0833333 µM): 29%; target mRNA inhibition (HepG2, 0.25 µM): 51%
RNA1{[moe](A)[sp].[moe](G)[sp].[moe](G)[sp].[moe](T)[sp].d(G)[sp].d(A)[sp].d(A)[sp].d(G)[sp].d(C)[sp].d(G)[sp].d(A)[sp].d(A)[sp].d(G)[sp].[moe](T)[sp].[moe](G)[sp].[moe](C)[sp].[moe](A)}$$$$V2.0	58% and 56%	–
RNA1{[moe](A)[sp].[moe](G)[sp].[moe](G)[sp].d(A)[sp].d(G)[sp].d(T)[sp].d(T)[sp].d(C)[sp].d(C)[sp].d(G)[sp].d(C)[sp].d(A)[sp].d(G)[sp].[cEt](T)[sp].[cEt](A)[sp].[cEt](T)}$$$$V2.0	59% and 58%	–
RNA1{[moe](A)[sp].[moe](G)[sp].[moe](G)[sp].d(T)[sp].d(G)[sp].d(A)[sp].d(A)[sp].d(G)[sp].d(C)[sp].d(G)[sp].d(A)[sp].d(A)[sp].[moe](G)[sp].[moe](T)[sp].[moe](G)[sp].[moe](C)[sp].[moe](A)}$$$$V2.0	77% and 71%	–
RNA1{[moe](A)[sp].[moe](G)[sp].[moe](G)[sp].d(T)[sp].d(G)[sp].d(A)[sp].d(A)[sp].d(G)[sp].d(C)[sp].d(G)[sp].d(A)[sp].d(A)[sp].[moe](G)[sp].[moe](T)[sp].[moe](G)[sp].[moe](C)}$$$$V2.0	68% and 58%	–
RNA1{[moe](A)[sp].[moe](G)[sp].[moe](T)[sp].[moe](T)[sp].[moe](C)[sp].d(C)[sp].d(G)[sp].d(C)[sp].d(A)[sp].d(G)[sp].d(T)[sp].d(A)[sp].d(T)[sp].d(G)[sp].[moe](G)[sp].[moe](A)}$$$$V2.0	61% and 40%	–
RNA1{[moe](A)[sp].[moe](G)[sp].[moe](T)[sp].d(T)[sp].d(C)[sp].d(C)[sp].d(G)[sp].d(C)[sp].d(A)[sp].d(G)[sp].d(T)[sp].d(A)[sp].[moe](T)[sp].[moe](G)[sp].[moe](G)[sp].[moe](A)[sp].[moe](T)}$$$$V2.0	60% and 64%	–
RNA1{[moe](A)[sp].[moe](G)[sp].d(C)[sp].d(G)[sp].d(A)[sp].d(A)[sp].d(G)[sp].d(T)[sp].d(G)[sp].d(C)[sp].d(A)[sp].[moe](C)[sp].[moe](A)[sp].[moe](C)[sp].[moe](G)[sp].[moe](G)}$$$$V2.0	79% and 73%	target mRNA inhibition (HepG2, 0.0092593 µM): 0%; target mRNA inhibition (HepG2, 0.0277778 µM): 30%; target mRNA inhibition (HepG2, 0.0833333 µM): 72%; target mRNA inhibition (HepG2, 0.25 µM): 84%
RNA1{[moe](A)[sp].[moe](G)[sp].d(G)[sp].d(C)[sp].d(A)[sp].d(T)[sp].d(A)[sp].d(G)[sp].d(C)[sp].d(A)[sp].d(G)[sp].[moe](C)[sp].[moe](A)[sp].[moe](G)[sp].[moe](G)[sp].[moe](A)}$$$$V2.0	57% and 51%	–
RNA1{[moe](A)[sp].[moe](T)[sp].[moe](G)[sp].[moe](A)[sp].[moe](G)[sp].d(G)[sp].d(C)[sp].d(A)[sp].d(T)[sp].d(A)[sp].d(G)[sp].d(C)[sp].d(A)[sp].d(G)[sp].[moe](C)[sp].[moe](A)[sp].[moe](G)}$$$$V2.0	50% and 44%	–
RNA1{[moe](A)[sp].[moe](T)[sp].[moe](G)[sp].[moe](A)[sp].[moe](G)[sp].d(G)[sp].d(C)[sp].d(A)[sp].d(T)[sp].d(A)[sp].d(G)[sp].d(C)[sp].d(A)[sp].d(G)[sp].[moe](C)[sp].[moe](A)}$$$$V2.0	52% and 56%	–
RNA1{[moe](A)[sp].[moe](T)[sp].[moe](G)[sp].d(A)[sp].d(G)[sp].d(G)[sp].d(C)[sp].d(A)[sp].d(T)[sp].d(A)[sp].d(G)[sp].d(C)[sp].[moe](A)[sp].[moe](G)[sp].[moe](C)[sp].[moe](A)}$$$$V2.0	53% and 44%	–
RNA1{[moe](A)[sp].[moe](T)[sp].[moe](T)[sp].[cEt](T)[sp].[cEt](A)[sp].d(T)[sp].d(G)[sp].d(C)[sp].d(C)[sp].d(T)[sp].d(A)[sp].d(C)[sp].[cEt](A)[sp].[cEt](G)[sp].[moe](C)[sp].[moe](C)[sp].[moe](T)}$$$$V2.0	–	target mRNA inhibition (HepG2, 0.009375 µM): 4%; target mRNA inhibition (HepG2, 0.01875 µM): 30%; target mRNA inhibition (HepG2, 0.0375 µM): 44%; target mRNA inhibition (HepG2, 0.075 µM): 52%; target mRNA inhibition (HepG2, 0.15 µM): 67%; target mRNA inhibition (HepG2, 0.3 µM): 76%
RNA1{[moe](A)[sp].[moe](T)[sp].[moe](T)[sp].[moe](T)[sp].[moe](A)[sp].d(T)[sp].d(G)[sp].d(C)[sp].d(C)[sp].d(T)[sp].d(A)[sp].d(C)[sp].d(A)[sp].d(G)[sp].[moe](C)[sp].[moe](C)}$$$$V2.0	47% and 41%	–
RNA1{[moe](A)[sp].[moe](T)[sp].[moe](T)[sp].[moe](T)[sp].d(A)[sp].d(T)[sp].d(G)[sp].d(C)[sp].d(C)[sp].d(T)[sp].d(A)[sp].d(C)[sp].d(A)[sp].[moe](G)[sp].[moe](C)[sp].[moe](C)[sp].[moe](T)}$$$$V2.0	58% and 42%	–
RNA1{[moe](A)[sp].[moe](T)[sp].[moe](T)[sp].d(T)[sp].d(A)[sp].d(T)[sp].d(G)[sp].d(C)[sp].d(C)[sp].d(T)[sp].d(A)[sp].d(C)[sp].[moe](A)[sp].[moe](G)[sp].[moe](C)[sp].[moe](C)}$$$$V2.0	38% and 47%	–
